Among the test systems are DU-145; MOLT-4; SF-539; UO-31; T47D; OVCAR-8; HOP-92; NCI-H23; CCRF-CEM; KM12; MDA-MB-435; NCI-H460; COLO 205; A549; 786-0; EKVX; OVCAR-4; NCI-H522; LOX IMVI; NCI-H226.
Test in all cases: DTP human tumour cell line panel, 48 h

Molecules are shown by their SMILES.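 Exposure lasted 48 hours, with cells grown in 96-well plates and compounds tested at five concentrations. Abbreviation: GI50, concentration required for 50% inhibition of growth.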 Calls of active or inactive are those of the source. Rule as the data show it: active = GI50 up to about 1.1 µM and inactive = higher. Residues, ends and D or L forms follow the SMILES beside them. *: point of attachment. Boc = CC(C)(C)OC(=O)*

As to `CC(C)(C)c1ccc(O)c(CN(Cc2cc(C(C)(C)C)ccc2O)C2CCCCC2)c1`, the GI50 (in general, the concentration that inhibits growth by half) with DU-145 is 19.5 µM (inactive); in the experiment with MOLT-4, 17.7 µM (inactive); in the experiment with SF-539, 17.3 µM (inactive); with UO-31 it was 23.2 µM (inactive); in the experiment on T47D, 16.4 µM (inactive); with OVCAR-8 it was 15.9 µM (inactive). In addition, the GI50 is 16 µM (inactive) in the experiment with HOP-92; 20.4 µM (inactive) in the experiment with NCI-H23; 27.5 µM (inactive) in the experiment on CCRF-CEM; 20.5 µM (inactive) with KM12; 14.5 µM (inactive) with MDA-MB-435; 16.7 µM (inactive) in the experiment on NCI-H460. The GI50 was 2.2 µM (inactive) in the experiment with COLO 205; 16.2 µM (inactive) in the experiment with A549; 16 µM (inactive) with 786-0; 17.5 µM (inactive) in the experiment with EKVX; 16.9 µM (inactive) in the experiment on OVCAR-4; 15.8 µM (inactive) in the experiment on NCI-H522. Also, the GI50 in the experiment on LOX IMVI is 10.7 µM (inactive).
Turning to `O=c1sc(Nc2ccc3ccccc3c2Cl)nc2ccccc12`, the GI50 in the experiment with DU-145 was > 100 µM (inactive); in the experiment with SF-539, 73.8 µM (inactive); with UO-31 it was > 100 µM (inactive); with T47D it was > 100 µM (inactive); with HOP-92, 35.9 µM (inactive); in the experiment with NCI-H23, > 100 µM (inactive). Further, the GI50 with CCRF-CEM was > 100 µM (inactive); in the experiment on KM12, > 100 µM (inactive); with MDA-MB-435, 37.1 µM (inactive); in the experiment on NCI-H460, 60.4 µM (inactive); in the experiment with COLO 205, > 100 µM (inactive); with A549 it was > 100 µM (inactive). For the same molecule, the GI50 with 786-0, in the experiment on EKVX, in the experiment on OVCAR-4, in the experiment with NCI-H522 and in the experiment with LOX IMVI was > 100 µM (inactive) in each case.
Turning to `O=C1c2ccccc2C(=O)c2c1sc1nc3ccccc3n21`, the GI50 in the experiment on DU-145 was 1.75 µM (inactive); in the experiment on MOLT-4, 1.97 µM (inactive); in the experiment with SF-539, 1.81 µM (inactive); with UO-31, 2.01 µM (inactive); in the experiment on T47D, 1.83 µM (inactive); in the experiment on OVCAR-8, 1.9 µM (inactive). In addition, the GI50 in the experiment on HOP-92 is 10.4 µM (inactive); with NCI-H23, 1.29 µM (inactive); with CCRF-CEM, 1.94 µM (inactive); in the experiment with KM12 it was 1.83 µM (inactive); with MDA-MB-435, 2.11 µM (inactive); with NCI-H226, 5.68 µM (inactive). Moreover, the GI50 is 1.79 µM (inactive) with NCI-H460; 1.8 µM (inactive) in the experiment on COLO 205; 10.7 µM (inactive) in the experiment with A549; 2.15 µM (inactive) with 786-0; 2.4 µM (inactive) in the experiment on EKVX; 0.893 µM (active) in the experiment with LOX IMVI.
Take `O=C(Nc1ccn(C2CC(O)C(COC(c3ccccc3)(c3ccccc3)c3ccccc3)O2)c(=O)n1)c1ccccc1` (configuration not stated): the GI50 in the experiment with DU-145 is 5.61 µM (inactive); in the experiment on MOLT-4, 2.16 µM (inactive); in the experiment with SF-539 it was 3.36 µM (inactive); in the experiment on UO-31 it was 6.81 µM (inactive); in the experiment on T47D, 4.46 µM (inactive); with OVCAR-8, 1.97 µM (inactive). Moreover, the GI50 in the experiment on HOP-92 was 1.57 µM (inactive); in the experiment on NCI-H23 it was 1.33 µM (inactive); with CCRF-CEM, 2.79 µM (inactive); in the experiment on KM12 it was 4.35 µM (inactive); in the experiment with MDA-MB-435 it was 2.56 µM (inactive); in the experiment with NCI-H226, 11 µM (inactive). The GI50 in the experiment with NCI-H460 was 2.03 µM (inactive); in the experiment on COLO 205 it was 2.09 µM (inactive); in the experiment with A549, 4.54 µM (inactive); in the experiment on 786-0, 1.98 µM (inactive); with EKVX it was 4.27 µM (inactive); in the experiment on OVCAR-4 it was 3.24 µM (inactive). The GI50 with NCI-H522 was 3.6 µM (inactive).
Turning to `COC(=O)c1cc2c3c(cc(N(C)C)c2[nH]1)N(C(=O)c1cc2cc(OC)c(OC)c(OC)c2[nH]1)CC3CCl` (configuration not stated), the GI50 in the experiment with DU-145 is < 0.0025 µM (active); with MOLT-4 it was < 0.0025 µM (active); in the experiment on SF-539 it was 0.00653 µM (active); with UO-31, 0.00316 µM (active); in the experiment on T47D it was < 0.0025 µM (active); in the experiment on HOP-92 it was 0.0041 µM (active). The GI50 is 0.00381 µM (active) in the experiment with NCI-H23; 0.00403 µM (active) with CCRF-CEM; 0.00267 µM (active) with KM12; 0.00298 µM (active) in the experiment with MDA-MB-435; 0.00362 µM (active) with NCI-H226; 0.00252 µM (active) in the experiment on NCI-H460. For the same molecule, the GI50 was 0.00557 µM (active) in the experiment with COLO 205; 0.00292 µM (active) in the experiment on A549; < 0.0025 µM (active) in the experiment with 786-0; 0.0146 µM (active) with EKVX; 0.00745 µM (active) with OVCAR-4; 0.00279 µM (active) in the experiment on NCI-H522.
Consider `O=C1O/C(=C\c2ccc(O)cc2)C(c2ccc(O)c(Cl)c2)=C1Br`, for which the GI50 is 12.9 µM (inactive) in the experiment with DU-145; 11.7 µM (inactive) with MOLT-4; 12 µM (inactive) in the experiment with SF-539; 14.6 µM (inactive) with UO-31; 17.7 µM (inactive) with T47D; 17.6 µM (inactive) in the experiment on OVCAR-8. The GI50 is 12.9 µM (inactive) in the experiment with HOP-92; 16.1 µM (inactive) with NCI-H23; 5.94 µM (inactive) with CCRF-CEM; 12.4 µM (inactive) in the experiment on KM12; 15.7 µM (inactive) in the experiment on MDA-MB-435; 12.8 µM (inactive) in the experiment on NCI-H460. The GI50 in the experiment with COLO 205 was 19.3 µM (inactive); in the experiment on 786-0, 13 µM (inactive); in the experiment on EKVX, 14.1 µM (inactive); with OVCAR-4 it was 11.4 µM (inactive); in the experiment on NCI-H522, 6.76 µM (inactive); in the experiment with LOX IMVI it was 42 µM (inactive).
In the case of `N#CC(=S)Nc1ccc(F)cc1`, the GI50 with DU-145 is 86.7 µM (inactive); in the experiment with MOLT-4 it was 31.3 µM (inactive); with SF-539, 38.2 µM (inactive); with T47D, 24 µM (inactive); in the experiment with OVCAR-8 it was 96.2 µM (inactive); in the experiment with HOP-92 it was 19.4 µM (inactive). Also, the GI50 is 53.7 µM (inactive) with NCI-H23; 22.4 µM (inactive) in the experiment on CCRF-CEM; 70.3 µM (inactive) in the experiment with KM12; 38 µM (inactive) in the experiment with MDA-MB-435; 78.5 µM (inactive) in the experiment with NCI-H226; 55.3 µM (inactive) in the experiment on NCI-H460. Also, the GI50 in the experiment on COLO 205 was 22.4 µM (inactive); with A549, 33.6 µM (inactive); with 786-0, 53.8 µM (inactive); in the experiment on EKVX, 72.3 µM (inactive); in the experiment on OVCAR-4 it was 28.6 µM (inactive); with LOX IMVI, 30.8 µM (inactive).
Turning to `COc1ccc(-c2nc(-c3cnccn3)n(Cc3ccccc3)n2)cc1`, the GI50 in the experiment with DU-145, in the experiment with MOLT-4, with SF-539, in the experiment on UO-31, in the experiment with T47D and with OVCAR-8 was > 100 µM (inactive) in each case. In addition, the GI50 in the experiment with HOP-92, in the experiment on NCI-H23, with CCRF-CEM, in the experiment with KM12, in the experiment on MDA-MB-435 and in the experiment on NCI-H460 was > 100 µM (inactive) throughout. Moreover, the GI50 in the experiment on COLO 205, in the experiment on A549, in the experiment on 786-0, in the experiment on OVCAR-4, in the experiment on NCI-H522 and in the experiment on LOX IMVI was > 100 µM (inactive) throughout.
For the molecule `S=C(N/N=C/c1ccccn1)N1CCCCCC1`, the GI50 with DU-145 was 0.115 µM (active); in the experiment with MOLT-4, < 0.01 µM (active); in the experiment with SF-539, < 0.0288 µM (active); in the experiment on UO-31 it was 0.0288 µM (active); in the experiment with T47D, < 0.01 µM (active); in the experiment with OVCAR-8, < 0.01 µM (active). The GI50 was 0.0832 µM (active) with HOP-92; < 0.01 µM (active) in the experiment with NCI-H23; < 0.01 µM (active) with CCRF-CEM; < 0.01 µM (active) with KM12; 0.148 µM (active) in the experiment with MDA-MB-435; < 0.01 µM (active) in the experiment on NCI-H460. The GI50 in the experiment with COLO 205 is < 0.01 µM (active); in the experiment on A549 it was < 0.0142 µM (active); in the experiment on 786-0, < 0.01 µM (active); with EKVX, < 0.0294 µM (active); with NCI-H522, < 0.0267 µM (active); with LOX IMVI it was < 0.01 µM (active).
As for `CC1CCC2C(C(=O)O[C@H]3C4CCO[C@@H](OC5OC(CO)C(O)C(O)C5O)C4[C@@]4(CO)O[C@@H]34)=CO[C@@H](OC3OC(CO)C(O)C(O)C3O)C12` (some centres not stated), the GI50 in the experiment with DU-145, in the experiment with MOLT-4, with SF-539, with UO-31, with T47D and in the experiment on OVCAR-8 was > 10 µM (inactive) in each case. For the same molecule, the GI50 in the experiment with HOP-92, with NCI-H23, in the experiment on CCRF-CEM, in the experiment on KM12, with MDA-MB-435 and in the experiment on NCI-H226 was > 10 µM (inactive) in each case. Moreover, the GI50 in the experiment on NCI-H460, with A549, in the experiment on 786-0, in the experiment with EKVX and with LOX IMVI was > 10 µM (inactive) each time.
Take `CC(NC(=O)C(NC(=O)OC(C)(C)C)C(C)C)C(=O)N1CCCC1C(=O)NCC(=O)NC(C(=O)NCC(=O)O)C(C)C` (configuration not stated) (Boc-VAPGVG-OH; configuration not given here): the GI50 in the experiment with DU-145, in the experiment with MOLT-4, in the experiment on SF-539, with UO-31, in the experiment on T47D and in the experiment on OVCAR-8 was > 100 µM (inactive) throughout. In addition, the GI50 was 29.2 µM (inactive) in the experiment on HOP-92; > 100 µM (inactive) in the experiment with NCI-H23; > 100 µM (inactive) in the experiment with CCRF-CEM; > 100 µM (inactive) with MDA-MB-435; 65.5 µM (inactive) in the experiment on NCI-H460; > 100 µM (inactive) in the experiment with COLO 205. Also, the GI50 with 786-0, in the experiment with EKVX, with OVCAR-4, with NCI-H522 and in the experiment with LOX IMVI was > 100 µM (inactive) each time.

For the origin of these results see ChEMBL document CHEMBL1201862, “PubChem BioAssay data set” (2004).
